Converted amounts (≈) assume the structure as drawn. Non-standard residues stand in square brackets, D forms with d. Residues, ends and D or L forms follow the SMILES beside them. *: point of attachment. X1 = O=C(O)c1cc(C(=O)*)ccc1-c1c2ccc(=O)cc-2oc2cc(O)ccc12; Pro(trans-4-guanidino) = N=C(N)N[C@H]1CN[C@H](C(=O)O)C1; Propyl(3-guanidino) = N=C(N)NCCC*; Hyp = O=C(O)[C@@H]1C[C@@H](O)CN1; Isobutyl = CC(C)C*
How the values were obtained:
S. aureus NRS 383 = conditions: NRS 383
S. aureus NRS 382 = conditions: NRS 382
S. typhimurium LT2 = conditions: LT2
A. baumannii 1747 = conditions: 1747
A. baumannii 1605 = conditions: 1605
S. aureus NRS 384 = conditions: NRS 384
S. epidermidis NRS 101 = conditions: NRS 101
E. coli 21922 = conditions: 21922
E. faecium 700221 = conditions: 700221
P. aeruginosa 48982 = conditions: 48982
A baumannii 19606 = conditions: 19606
S. flexneri 1a = test: MIC, broth microdilution (CLSI); type: cell-based; conditions: enteric pathogens
Experimental: (§1) The minimum inhibitory concentration (MIC) of the peptides (in uM/ml) and control antibiotics (vancomycin and gentamicin) in μg/mL, were determined using the broth microdilution method according to the guidelines of the Clinical and Laboratory Standards Institute (CLSI) guidelines. See CLSI. 2007. Methods for dilution antimicrobial susceptibility tests for bacteria that grow aerobically; approved standard M7-A7. CLSI, Wayne, Pa.

S. aureus RN 4220 = test: MIC, broth microdilution (CLSI); type: cell-based
Experimental: as §1

S. aureus ATCC 6538 = conditions: ATCC 6538
P. aeruginosa 31041 = conditions: 31041
E. cloacae 1134 = conditions: 1134
P. aeruginosa 50573 = conditions: 50573
P. aeruginosa 31040 = conditions: 31040
L. monocytogenes 191112 = conditions: 191112
K. pneumoniae 1706 = conditions: 1706

Row | SMILES | MIC (S. aureus NRS 383) | MIC (S. aureus NRS 382) | MIC (S. typhimurium LT2) | MIC (A. baumannii 1747) | MIC (A. baumannii 1605) | MIC (S. aureus NRS 384) | MIC (S. epidermidis NRS 101) | MIC (K. pneumonia NR 41928) | MIC (S. enteritidis) | MIC (K. pneumonia NR 41920) | MIC (E. coli 21922) | MIC (E. faecium 700221) | MIC (P. aeruginosa 48982) | MIC (A baumannii 19606) | MIC (S. aureus ATCC 6538) | MIC (P. aeruginosa 31041) | MIC (E. cloacae 1134) | MIC (P. aeruginosa 50573) | MIC (P. aeruginosa 31040) | MIC (L. monocytogenes 191112) | further results
1 | CC(C)CO[C@@H]1C[C@@H](C(=O)N2C[C@H](NC(=N)N)C[C@H]2C(=O)N2C[C@H](NC(=N)N)C[C@H]2C(=O)N2C[C@H](OCC(C)C)C[C@H]2C(=O)N2C[C@H](NC(=N)N)C[C@H]2C(=O)N2C[C@H](NC(=N)N)C[C@H]2C(=O)N2C[C@H](OCC(C)C)C[C@H]2C(=O)N2C[C@H](NC(=N)N)C[C@H]2C(=O)N2C[C@H](NC(=N)N)C[C@H]2C(=O)N2C[C@H](OCC(C)C)C[C@H]2C(=O)N2C[C@H](NC(=N)N)C[C@H]2C(=O)N2C[C@H](NC(=N)N)C[C@H]2C(=O)N2C[C@H](OCC(C)C)C[C@H]2C(N)=O)N(C(=O)CNC(=O)c2ccc(-c3c4ccc(=O)cc-4oc4cc(O)ccc34)c(C(=O)O)c2)C1 [Example 1] (X1-G[Hyp](Isobutyl)[Pro(trans-4-guanidino)][Pro(trans-4-guanidino)][Hyp](Isobutyl)[Pro(trans-4-guanidino)][Pro(trans-4-guanidino)][Hyp](Isobutyl)[Pro(trans-4-guanidino)][Pro(trans-4-guanidino)][Hyp](Isobutyl)[Pro(trans-4-guanidino)][Pro(trans-4-guanidino)][Hyp](Isobutyl)-NH2) | 2 µM (≈ 5.02 µg/mL) | 2 µM (≈ 5.02 µg/mL) | 1 µM (≈ 2.51 µg/mL) | 0.5 µM (≈ 1.26 µg/mL) | 0.5 µM (≈ 1.26 µg/mL) | 2 µM (≈ 5.02 µg/mL) | 1 µM (≈ 2.51 µg/mL) | 1 µM (≈ 2.51 µg/mL) | 1 µM (≈ 2.51 µg/mL) | 4 µM (≈ 10 µg/mL) | 1 µM (≈ 2.51 µg/mL) | 1 µM (≈ 2.51 µg/mL) | 4 µM (≈ 10 µg/mL) | 1 µM (≈ 2.51 µg/mL) | 1 µM (≈ 2.51 µg/mL) | 2 µM (≈ 5.02 µg/mL) | 2 µM (≈ 5.02 µg/mL) | 2 µM (≈ 5.02 µg/mL) | 2 µM (≈ 5.02 µg/mL) | 2 µM (≈ 5.02 µg/mL) | MIC (S. flexneri 1a): 1 µM (≈ 2.51 µg/mL); MIC (S. aureus RN 4220): 2 µM (≈ 5.02 µg/mL); MIC (VRSA 10): 2 µM (≈ 5.02 µg/mL); MIC (VRSA 5): 2 µM (≈ 5.02 µg/mL); MIC (K. pneumoniae 1706): 8 µM (≈ 20.1 µg/mL)
2 | CC(C)CO[C@@H]1C[C@@H](C(=O)N2C[C@H](OCCCNC(=N)N)C[C@H]2C(=O)N2C[C@H](OCCCNC(=N)N)C[C@H]2C(=O)N2C[C@H](OCC(C)C)C[C@H]2C(=O)N2C[C@H](OCCCNC(=N)N)C[C@H]2C(=O)N2C[C@H](OCCCNC(=N)N)C[C@H]2C(=O)N2C[C@H](OCC(C)C)C[C@H]2C(=O)N2C[C@H](OCCCNC(=N)N)C[C@H]2C(=O)N2C[C@H](OCCCNC(=N)N)C[C@H]2C(=O)N2C[C@H](OCC(C)C)C[C@H]2C(=O)N2C[C@H](OCCCNC(=N)N)C[C@H]2C(=O)N2C[C@H](OCCCNC(=N)N)C[C@H]2C(=O)N2C[C@H](OCC(C)C)C[C@H]2C(N)=O)N(C(=O)CNC(=O)c2ccc(-c3c4ccc(=O)cc-4oc4cc(O)ccc34)c(C(=O)O)c2)C1 [Example P14-LRR] (X1-G[Hyp](Isobutyl)[Hyp](Propyl(3-guanidino))[Hyp](Propyl(3-guanidino))[Hyp](Isobutyl)[Hyp](Propyl(3-guanidino))[Hyp](Propyl(3-guanidino))[Hyp](Isobutyl)[Hyp](Propyl(3-guanidino))[Hyp](Propyl(3-guanidino))[Hyp](Isobutyl)[Hyp](Propyl(3-guanidino))[Hyp](Propyl(3-guanidino))[Hyp](Isobutyl)-NH2; N-terminus and C-terminus assumed) | 32 µM (≈ 95.2 µg/mL) | 32 µM (≈ 95.2 µg/mL) | 16 µM (≈ 47.6 µg/mL) | 1 µM (≈ 2.98 µg/mL) | 1 µM (≈ 2.98 µg/mL) | 16 µM (≈ 47.6 µg/mL) | 2 µM (≈ 5.95 µg/mL) | >32 µM | 4 µM (≈ 11.9 µg/mL) | 32 µM (≈ 95.2 µg/mL) | 4 µM (≈ 11.9 µg/mL) | 2 µM (≈ 5.95 µg/mL) | 32 µM (≈ 95.2 µg/mL) | 2 µM (≈ 5.95 µg/mL) | 16 µM (≈ 47.6 µg/mL) | 32 µM (≈ 95.2 µg/mL) | 32 µM (≈ 95.2 µg/mL) | 16 µM (≈ 47.6 µg/mL) | 32 µM (≈ 95.2 µg/mL) | 8 µM (≈ 23.8 µg/mL) | MIC (K. pneumoniae 1706): >32 µM

Source: US10875895B2, “Antibacterial cell-penetrating peptides” (Purdue Research Foundation, priority 2018, dated 2020)
